The target of assay [1] is T1, Human PTP1B catalytic domain (1-300) (Homo sapiens, UniProt P18031).
T1 construct: Human PTP1B catalytic domain (1–300) was cloned into PET-15b; His tag (pET-15b) (N); made in house; host or cells: E. coli (as for STEP46, BL21 (DE3))
T1 sequence (P18031 1-300): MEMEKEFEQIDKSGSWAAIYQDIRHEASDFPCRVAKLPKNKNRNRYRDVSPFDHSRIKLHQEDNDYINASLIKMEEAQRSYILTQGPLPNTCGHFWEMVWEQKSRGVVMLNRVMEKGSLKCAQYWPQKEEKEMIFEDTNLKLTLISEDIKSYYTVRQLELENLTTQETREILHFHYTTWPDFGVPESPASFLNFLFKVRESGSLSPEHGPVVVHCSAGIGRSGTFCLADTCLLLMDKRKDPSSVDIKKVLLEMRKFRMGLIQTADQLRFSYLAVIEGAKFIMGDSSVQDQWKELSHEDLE
The assay can be described thus: PTP1B Michaelis-Menten kinetic assay with DiFMUP. The assay is classed as biochemical. To be noted: PTP1B 0.5 nM.
Experimental: Human STEP46 and PTP1B activity was measured at room temperature (RT) in a 384-well plate format standard phosphatase fluorescence intensity assay using DiFMUP as a substrate and a total reaction volume of 25 μL. PTP working solutions were prepared at a 0.625 nM concentration (for a final concentration of 0.5 nM) in buffer containing 50 mM Bis-Tris pH 6.0, 50 mM NaCl, 5 mM DTT, and 0.01% Tween® 20. DiFMUP working solutions at 5X final concentration were prepared in 50 mM Bis-Tris pH 6.0, 50 mM NaCl, and 0.01% Tween 20. […] Fluorescence intensity was measured in kinetic mode (every minute for 10 min) using a Tecan Spark® Multimode Microplate Reader (Tecan, Groedig, Austria) with an excitation wavelength of 360 nm and an emission wavelength of 460 nm. The initial rates were determined from the linear progress curves of the PTP reaction. […] Michaelis–Menten plots were generated for each PTP construct, and Michaelis–Menten constants (Km) were calculated using the program GraphPad Prism (version 8, GraphPad Software, Inc., San Diego, CA, USA).

For another assay, the target named is T2, full-length human STEP46 (Homo sapiens, UniProt P54829).
T2 construct: Codon-optimized human full-length STEP46 cDNA was synthesized; His tag (pET-15b) (N); made in house; host or cells: E. coli BL21 (DE3)
T2 sequence (P54829 173-541 isoform P54829-3 limits assumed): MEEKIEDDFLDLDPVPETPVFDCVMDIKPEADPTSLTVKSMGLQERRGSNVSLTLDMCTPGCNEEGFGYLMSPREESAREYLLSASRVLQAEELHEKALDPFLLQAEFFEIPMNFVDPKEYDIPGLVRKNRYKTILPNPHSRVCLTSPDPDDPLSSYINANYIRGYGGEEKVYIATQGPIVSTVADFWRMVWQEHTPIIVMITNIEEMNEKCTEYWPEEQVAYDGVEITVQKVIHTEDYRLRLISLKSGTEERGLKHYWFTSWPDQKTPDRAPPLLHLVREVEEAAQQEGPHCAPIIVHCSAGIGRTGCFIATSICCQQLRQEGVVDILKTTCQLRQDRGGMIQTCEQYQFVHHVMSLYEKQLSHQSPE
The assay can be described thus: STEP46 biochemical inhibition assay (DiFMUP phosphatase fluorescence intensity assay). To be noted: powder-confirmed hits, 10-pt dose-response, 0.5 nM STEP46, DiFMUP 3 μM, 20 min preincubation, pH 6.0, RT. The text has this:
Employing the established STEP46 DiFMUP assay to determine enzymatic activity, we tested the 72 confirmed hits in 10-pt dose-response biochemical inhibition experiments. […] This rate of biochemically active compounds from confirmed PTS hits was in agreement with our prior experience from a similar PTS screening campaign against the SHP2 phosphatase (unpublished data). Next, we obtained commercial dry powders of the 17 biochemically active hits to confirm their activity from pure, fresh material. Powders were quality controlled using standard ^1H-NMR and LC-MS methods and repurified in cases where purity was determined to be below 95%. Pure powders were then retested in 10-pt dose-response STEP46 inhibition assays. Activity could be confirmed for 10 of the 17 powders.
(§1) Hit compounds were tested at room temperature (RT) in a 384-well plate format standard phosphatase fluorescence intensity assay using DiFMUP as a substrate and a total reaction volume of 25 μL. Compounds or vehicle (DMSO) were spotted in triplicate into a black Greiner FLUOTRAC 200 384-well microplate for a 10-point dose-response assay using the Echo 555 liquid handler. PTP working solutions were prepared at a 0.625 nM concentration (for a final concentration of 0.5 nM) in buffer containing 50 mM Bis-Tris pH 6.0, 50 mM NaCl, 5 mM DTT, and 0.01% Tween 20. DiFMUP working solutions at 5X final concentration were prepared in 50 mM Bis-Tris pH 6.0, 50 mM NaCl, and 0.01% Tween 20. PTP working solution (20 μL) was dispensed into the microplate and incubated with compound for 20 min at RT. […] The reaction was initiated by addition of 5 μL DiFMUP working solutions. Fluorescence intensity was measured in a kinetic mode as described above. IC50 values were calculated from the corrected initial rates by nonlinear regression using the program GraphPad Prism (version 8, GraphPad Software, Inc., San Diego, CA, USA).

Assay [2] deals with T1, Human PTP1B catalytic domain (1-300). The assay can be described thus: PTP1B biochemical inhibition assay (DiFMUP phosphatase fluorescence intensity assay). To be noted: powder-confirmed hits, 10-pt dose-response, 0.5 nM PTP1B, DiFMUP 25 μM, 20 min preincubation, pH 6.0, RT. The protocol: One of the major issues in prior STEP HTS campaigns using phosphatase activity as a readout was the lack of potent chemical matter with relative selectivity for STEP (PubChem AID: 588,619 and our unpublished data). […] For these assays, we expressed and purified the catalytic domain of PTP1B (1-300) using an approach similar to the one described for STEP46 above. The enzymatic activity of the highly pure PTP1B was assessed by adapting the DiFMUP phosphatase assay. Similar to STEP46, a concentration of 0.5 nM PTP1B was found optimal for kinetic experiments. […] Using DiFMUP at that concentration, we tested all 10 powder-confirmed hits in 10-pt dose-response inhibition assays against PTP1B.
as §1

For another assay, the system named is AD mice. Set-up: method as in PMID 25093460. To be noted: cited from earlier work.

As usually defined, the Km is the concentration of substrate that gives half-maximal velocity. By IC50 is commonly meant the midpoint of a concentration-inhibition curve.

In the case of `Cc1cc(=O)oc2c(F)c(OP(=O)(O)O)c(F)cc12` [DiFMUP, 6,8-difluoro-4-methylumbelliferyl phosphate], in assay [1], the Km came to 25 µM. Take `Cc1ccc(Nc2nc(CSc3nnnn3-c3ccccc3)cc(=O)[nH]2)cc1` [SBI-0738]: the IC50 is 5.7 µM at full-length human STEP46 and 6.1 µM in assay [2].

For the compound `Cc1c2c(=O)n(-c3nc4ccccc4s3)[nH]c2cc(=O)n1CCC(C)C` [SBI-0743], the values for the IC50 (at full-length human STEP46; in assay [2]) were 5.5 µM and 22 µM, respectively.

As for `O=C(CSc1c[nH]nn1)Nc1ccc(/C=C/c2ccccc2)cc1` [SBI-1359], the IC50 at full-length human STEP46 came out at 7 µM; in assay [2], 28 µM. For `NC(=O)c1cccc(NC(=O)c2cc3c(ccc4ccccc43)o2)c1` [SBI-2136] the same measures were 5.3 µM and 14 µM.

Take `Nc1oc2cc(O)ccc2c(=O)c1-c1nc2ccccc2s1` [SBI-6066]: the figures for the IC50 (against full-length human STEP46; in assay [2]) were 5 µM and over 100 µM, respectively. As to `Cc1cc(C)cc(C(=O)Nc2ccc(-c3nc4ccccc4[nH]3)cc2)c1` [SBI-6083], the results for the IC50 (against full-length human STEP46; in assay [2]) were 5.4 µM and over 100 µM, respectively. On the same counts, the results for `O=C(Cc1ccc(Cl)cc1)Nc1ccc(C(=O)Nc2cccc(O)c2)cc1` [SBI-6727] are 18 µM and 57 µM. For `N#Cc1sc2nc(-c3ccc4c(c3)OCO4)ccc2c1N` [SBI-7297] the same measures were 32 µM and over 100 µM. On the same counts, the results for `COc1ccccc1-c1ccc2c(N)c(C#N)sc2n1` [SBI-8771] are 16 µM and 79 µM.

Regarding `Nc1ccc(NCC2CCCO2)c(C(=O)O)c1` (stereo not shown) [SBI-8929], the IC50 turned out to be 33 µM at full-length human STEP46 and 20 µM in assay [2]. Regarding `Nc1cc(C(F)(F)F)cc2c1SSSSS2` [TC-2153], in the assay on AD mice, the “Effect on cognitive deficits in AD mice” value is listed as “effectively reversed cognitive deficits”.

Values taken from paper PMC8122956, “Development of a Robust High-Throughput Screening Platform for Inhibitors of the Striatal-Enriched Tyrosine Phosphatase (STEP)” (International Journal of Molecular Sciences, 2021).
